Experimental data: paper PMC11984392, “EphA2-targeted alpha-particle theranostics for enhancing PDAC treatment” (Theranostics, 2025)
Like-named read-outs stand apart in the source and are kept apart here. *1 amine or outer side, *2 acyl side, *3 side chain or, on linkers, in order; H or OH if unused. Where a SMILES comes first, the peptide text is derived from it. Bridges are numbered along the chain shown (N, C = ends). [ ]: non-standard residue; d: D form. The star is where a group is joined. TATA = O=C(CC[*:1])N1CN(C(=O)CC[*:2])CN(C(=O)CC[*:3])C1; NOTA = O=C(O)CN1CCN(CC(=O)O)CCN(CC(=O)*)CC1; Hyp = O=C(O)[C@@H]1C[C@@H](O)CN1; hArg = N=C(N)NCCCC[C@H](N)C(=O)O; PEG2 = NCCOCCOCCC(=O)O; Sar = CNCC(=O)O

Experiment: Ex vivo biodistribution
Design: species or system NSG mice
Settings: both sexes, NSG, mouse, in vivo, iv, 80 uCi, total radioactivity, mean ± SEM (n = 4 or 5); for tissue uptake at 5 min / tissue to tissue ratio at 5 min: 5 min p.i.; for tissue uptake at 5 min / tissue uptake at 0.5 h / tissue uptake at 1 h / tissue uptake at 1.5 h / tissue uptake at 2 h: i.v.; for tissue to tissue ratio at 5 min / tissue to tissue ratio at 0.5 h / tissue to tissue ratio at 1 h / tissue to tissue ratio at 1.5 h: dimensionless; for tissue uptake at 0.5 h / tissue to tissue ratio at 0.5 h: 30 min p.i.; for tissue uptake at 1 h / tissue to tissue ratio at 1 h: 60 min p.i.; for tissue uptake at 1.5 h / tissue to tissue ratio at 1.5 h: 90 min p.i.; for tissue uptake at 2 h: 120 min p.i.
Experimental: Animal studies were performed under Johns Hopkins University Animal Care and Use Committee (ACUC)-approved protocol (Principal investigator: Sridhar Nimmagadda, Ph.D. and Protocol number M021M175). Male and Female NSG mice (5-6 weeks old) were purchased from JHU immunocompromised core and used to establish xenografts by administering cells subcutaneously (top right flank, unless otherwise noted) to form various tumor models within 3-4 weeks. Following cell numbers were used: Panc1, AsPC1, BxPC3 (1 M), Hs766T and SU8686 (2 M), CFPAC and Panc1005 (5 M). Imaging or biodistribution studies (n = 3-5) were conducted on mice with tumor volumes of 100-200 mm^3. The Panc1 orthotopic tumor model was established by surgically implanting a 3-5 mm^3 section of Panc1 tumor xenograft directly onto the pancreas. The implanted tumors were allowed to grow and were ready for imaging after 10 days of implantation.
Mice with 100-200 mm^3 tumor volume were used for ex vivo biodistribution studies. For radiotracer pharmacokinetics and dosimetry studies, mice with Panc1 tumor xenograft received ~80 µCi (2.96 MBq) [^68Ga]AJ201 and were sacrificed at pre-determined time points (5, 30, 60, 90 and 120 min). All other mice were injected with ~50 µCi (1.85 MBq; 0.2 to 0.5 nmol) Ga-68 labeled radiotracer and were sacrificed at 60 min. The selected tissues were collected, weighed, counted, and their %ID/g values calculated for biodistribution analysis. For pharmacokinetics and dosimetry studies, selected tissues included blood, muscle, tumor, thymus, heart, lung, liver, pancreas, stomach, small intestine, large intestine, spleen, adrenals, kidney, bladder, femur, brain and tumor xenografts. For other studies, selected tissues were blood, muscle, tumor, heart, lung, liver, pancreas, small intestine, spleen, kidney.

[1] = read-out: Stomach with contents uptake

## CC(C)C[C@@H]1NC(=O)[C@@H]2CSCCC(=O)N3CN(CN(C3)C(=O)CCSC[C@H](NC(=O)[C@H](CC(=O)O)NC(=O)[C@H](CCCCNC(=N)N)NC(=O)[C@H](C)NC(=O)CNC(=O)CN(C)C(=O)CN(C)C(=O)CN(C)C(=O)[C@H](CCCNC(=N)N)NC(=O)CNC(=O)CCOCCOCCNC(=O)CN3CCN(CC(=O)O)CCN(CC(=O)O)CC3)C(=O)N3C[C@H](O)C[C@H]3C(=O)N[C@@H](CC(C)C)C(=O)N[C@@H](C(C)C)C(=O)N[C@@H](CC(N)=O)C(=O)N3CCC[C@H]3C(=O)N[C@@H](CC(C)C)C(=O)N2)C(=O)CCSC[C@@H](C(N)=O)NC(=O)[C@H](CCCCNC(=N)N)NC(=O)[C@H](Cc2c[nH]c3ccccc23)NC(=O)[C@@H](CC(=O)O)NC(=O)[C@@H]2CCCN2C(=O)[C@H](Cc2c[nH]cn2)NC1=O [[^68Ga]AJ201, metal not drawn] ({NOTA-PEG2}-GR[Sar][Sar][Sar]GA[hArg]DC[Hyp]LVNPLCLHP[dD]W[hArg]C-NH2; linker 10-17-24 via TATA)
read-out: Blood uptake
  tissue uptake at 5 min: 8.2 ± 0.92 %ID/g
  tissue uptake at 0.5 h: 1.61 ± 0.18 %ID/g
  tissue uptake at 1 h: 0.49 ± 0.07 %ID/g
  tissue uptake at 1.5 h: 1.18 ± 0.27 %ID/g
  tissue uptake at 2 h: 0.9 ± 0.29 %ID/g
read-out: Brain uptake
  tissue uptake at 5 min: 0.4 ± 0.08 %ID/g
  tissue uptake at 0.5 h: 0.09 ± 0.01 %ID/g
  tissue uptake at 1 h: 0.04 ± 0.01 %ID/g
  tissue uptake at 1.5 h: 0.05 ± 0.01 %ID/g
  tissue uptake at 2 h: 0.05 ± 0.01 %ID/g
read-out: Heart uptake
  tissue uptake at 5 min: 4.19 ± 1.06 %ID/g
  tissue uptake at 0.5 h: 0.97 ± 0.15 %ID/g
  tissue uptake at 1 h: 0.29 ± 0.08 %ID/g
  tissue uptake at 1.5 h: 0.76 ± 0.13 %ID/g
  tissue uptake at 2 h: 0.68 ± 0.17 %ID/g
read-out: Liver uptake
  tissue uptake at 5 min: 4.25 ± 0.99 %ID/g
  tissue uptake at 0.5 h: 1.15 ± 0.19 %ID/g
  tissue uptake at 1 h: 0.32 ± 0.02 %ID/g
  tissue uptake at 1.5 h: 0.9 ± 0.17 %ID/g
  tissue uptake at 2 h: 0.84 ± 0.13 %ID/g
read-out: Lung uptake
  tissue uptake at 5 min: 8.24 ± 0.93 %ID/g
  tissue uptake at 0.5 h: 2.29 ± 0.26 %ID/g
  tissue uptake at 1 h: 0.65 ± 0.04 %ID/g
  tissue uptake at 1.5 h: 1.4 ± 0.27 %ID/g
  tissue uptake at 2 h: 1.15 ± 0.22 %ID/g
read-out: Muscle uptake
  tissue uptake at 5 min: 1.79 ± 0.24 %ID/g
  tissue uptake at 0.5 h: 1.11 ± 0.34 %ID/g
  tissue uptake at 1 h: 0.21 ± 0.05 %ID/g
  tissue uptake at 1.5 h: 0.37 ± 0.11 %ID/g
  tissue uptake at 2 h: 0.26 ± 0.04 %ID/g
read-out: Pancreas uptake
  tissue uptake at 5 min: 3.24 ± 0.08 %ID/g
  tissue uptake at 0.5 h: 0.74 ± 0.1 %ID/g
  tissue uptake at 1 h: 0.16 ± 0.01 %ID/g
  tissue uptake at 1.5 h: 0.57 ± 0.15 %ID/g
[1]
  tissue uptake at 5 min: 1.8 ± 0.39 %ID/g
  tissue uptake at 0.5 h: 0.77 ± 0.31 %ID/g
  tissue uptake at 1 h: 0.15 ± 0.03 %ID/g
  tissue uptake at 1.5 h: 0.27 ± 0.06 %ID/g
read-out: Thymus uptake
  tissue uptake at 5 min: 4.61 ± 0.51 %ID/g
  tissue uptake at 0.5 h: 2.35 ± 0.66 %ID/g
  tissue uptake at 1.5 h: 1.64 ± 0.42 %ID/g
read-out: Tumor uptake
  tissue uptake at 5 min: 7.06 ± 0.48 %ID/g
  tissue uptake at 0.5 h: 6.96 ± 0.31 %ID/g
  tissue uptake at 1 h: 4.68 ± 0.25 %ID/g
  tissue uptake at 1.5 h: 6.04 ± 1.46 %ID/g
read-out: Tumor/Muscle ratio
  tissue to tissue ratio at 5 min: 4.12 ± 0.66
  tissue to tissue ratio at 0.5 h: 6.4 ± 3.6
  tissue to tissue ratio at 1 h: 25.8 ± 6.71
  tissue to tissue ratio at 1.5 h: 17 ± 2.11
read-out: Tumor/Pancreas ratio
  tissue to tissue ratio at 5 min: 2.18 ± 0.14
  tissue to tissue ratio at 0.5 h: 7.08 ± 2.57
  tissue to tissue ratio at 1 h: 28.8 ± 0.97
  tissue to tissue ratio at 1.5 h: 10.7 ± 0.2
read-out: Tumor/blood ratio
  tissue to tissue ratio at 5 min: 0.89 ± 0.14
  tissue to tissue ratio at 0.5 h: 3.31 ± 1.17
  tissue to tissue ratio at 1 h: 9.86 ± 1.1
  tissue to tissue ratio at 1.5 h: 5.43 ± 1.32
read-out: Femur uptake
  tissue uptake at 1.5 h: 0.68 ± 0.11 %ID/g
  tissue uptake at 2 h: 0.83 ± 0.33 %ID/g
